Reference: patent US20240382483A1, “HETEROCYCLIC EGFR INHIBITORS FOR USE IN THE TREATMENT OF CANCER” (Blueprint Medicines Corporation, priority 2021, published 2024)
Where a name gives a salt, the structure may show the parent alone.

Tests used:
EGFR (L858R T790M C797S) = biological target: T1, EGFR (L858R T790M C797S) (Homo sapiens, UniProt P00533, C797S/L858R/T790M); assay: Biochemical EGFR inhibition assay (Caliper mobility shift), EGFR LRTMCS; conditions: LRTMCS (PH) IC50 (nM) @ 1 mM ATP (Num), EGFR LRTMCS mutant
T1 construct: purchased SignalChem E10-122VG
T1 sequence (P00533 25-1210 T790M/C797S/L858R): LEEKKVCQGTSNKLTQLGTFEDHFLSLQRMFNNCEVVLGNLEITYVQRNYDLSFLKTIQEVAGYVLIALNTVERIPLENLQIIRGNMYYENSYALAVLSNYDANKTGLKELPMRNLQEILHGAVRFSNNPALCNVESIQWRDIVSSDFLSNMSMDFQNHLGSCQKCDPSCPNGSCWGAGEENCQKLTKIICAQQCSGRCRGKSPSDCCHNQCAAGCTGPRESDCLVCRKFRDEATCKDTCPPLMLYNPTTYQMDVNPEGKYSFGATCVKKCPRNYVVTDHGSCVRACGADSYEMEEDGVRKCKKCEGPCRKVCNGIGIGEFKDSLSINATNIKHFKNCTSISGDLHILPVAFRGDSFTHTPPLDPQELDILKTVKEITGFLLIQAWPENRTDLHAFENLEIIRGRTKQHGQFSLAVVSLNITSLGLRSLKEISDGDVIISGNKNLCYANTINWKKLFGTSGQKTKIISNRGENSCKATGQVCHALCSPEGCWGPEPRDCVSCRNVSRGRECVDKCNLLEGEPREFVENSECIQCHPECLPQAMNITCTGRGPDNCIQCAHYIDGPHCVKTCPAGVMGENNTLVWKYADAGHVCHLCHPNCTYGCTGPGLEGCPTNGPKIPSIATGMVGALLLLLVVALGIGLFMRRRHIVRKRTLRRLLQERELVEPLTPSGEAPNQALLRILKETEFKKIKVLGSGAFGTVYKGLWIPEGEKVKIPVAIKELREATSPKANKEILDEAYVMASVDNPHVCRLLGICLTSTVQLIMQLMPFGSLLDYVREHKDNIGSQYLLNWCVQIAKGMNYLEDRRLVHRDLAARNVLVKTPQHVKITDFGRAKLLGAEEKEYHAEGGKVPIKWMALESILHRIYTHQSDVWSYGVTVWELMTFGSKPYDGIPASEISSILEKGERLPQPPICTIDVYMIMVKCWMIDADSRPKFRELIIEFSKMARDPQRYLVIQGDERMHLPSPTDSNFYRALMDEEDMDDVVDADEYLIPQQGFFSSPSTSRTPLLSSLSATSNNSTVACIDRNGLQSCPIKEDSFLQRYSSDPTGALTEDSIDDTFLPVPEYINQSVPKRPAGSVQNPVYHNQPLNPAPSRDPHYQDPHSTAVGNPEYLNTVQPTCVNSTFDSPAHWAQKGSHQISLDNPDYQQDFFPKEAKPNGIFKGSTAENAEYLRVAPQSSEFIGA
Method in brief: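 Kinase reactions proceed at 25° C. to 10%–20% conversion of total peptide, are terminated with 35 mM EDTA, and the phosphopeptide is resolved from substrate by electrophoretic mobility shift. Apparent IC50 values come from plotting percent activity against log compound concentration.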

[1] = biological target: T2, intracellular phosphorylation of EGFR in NCI-H1975 cell line that harbors the EGFR L858R T790M mutations (Homo sapiens, UniProt P00533, L858R/T790M); assay: NCI-H1975 pEGFR AlphaLISA assay; format: cell-based; conditions: NCI-H1975 cells (EGFR L858R T790M), p-EGFR (Tyr1068), 4-5 hours incubation; read-out: Ext pEGFR H1975 GMean IC50 (nM) Protocol: @Pharmaron AlphaLISA (Num)
T2 construct: NCI-H1975 cell line that harbors the EGFR L858R T790M mutations (ATCC, CRL-5908); host or cells: NCI-H1975
T2 sequence (P00533 25-1210 T790M/L858R): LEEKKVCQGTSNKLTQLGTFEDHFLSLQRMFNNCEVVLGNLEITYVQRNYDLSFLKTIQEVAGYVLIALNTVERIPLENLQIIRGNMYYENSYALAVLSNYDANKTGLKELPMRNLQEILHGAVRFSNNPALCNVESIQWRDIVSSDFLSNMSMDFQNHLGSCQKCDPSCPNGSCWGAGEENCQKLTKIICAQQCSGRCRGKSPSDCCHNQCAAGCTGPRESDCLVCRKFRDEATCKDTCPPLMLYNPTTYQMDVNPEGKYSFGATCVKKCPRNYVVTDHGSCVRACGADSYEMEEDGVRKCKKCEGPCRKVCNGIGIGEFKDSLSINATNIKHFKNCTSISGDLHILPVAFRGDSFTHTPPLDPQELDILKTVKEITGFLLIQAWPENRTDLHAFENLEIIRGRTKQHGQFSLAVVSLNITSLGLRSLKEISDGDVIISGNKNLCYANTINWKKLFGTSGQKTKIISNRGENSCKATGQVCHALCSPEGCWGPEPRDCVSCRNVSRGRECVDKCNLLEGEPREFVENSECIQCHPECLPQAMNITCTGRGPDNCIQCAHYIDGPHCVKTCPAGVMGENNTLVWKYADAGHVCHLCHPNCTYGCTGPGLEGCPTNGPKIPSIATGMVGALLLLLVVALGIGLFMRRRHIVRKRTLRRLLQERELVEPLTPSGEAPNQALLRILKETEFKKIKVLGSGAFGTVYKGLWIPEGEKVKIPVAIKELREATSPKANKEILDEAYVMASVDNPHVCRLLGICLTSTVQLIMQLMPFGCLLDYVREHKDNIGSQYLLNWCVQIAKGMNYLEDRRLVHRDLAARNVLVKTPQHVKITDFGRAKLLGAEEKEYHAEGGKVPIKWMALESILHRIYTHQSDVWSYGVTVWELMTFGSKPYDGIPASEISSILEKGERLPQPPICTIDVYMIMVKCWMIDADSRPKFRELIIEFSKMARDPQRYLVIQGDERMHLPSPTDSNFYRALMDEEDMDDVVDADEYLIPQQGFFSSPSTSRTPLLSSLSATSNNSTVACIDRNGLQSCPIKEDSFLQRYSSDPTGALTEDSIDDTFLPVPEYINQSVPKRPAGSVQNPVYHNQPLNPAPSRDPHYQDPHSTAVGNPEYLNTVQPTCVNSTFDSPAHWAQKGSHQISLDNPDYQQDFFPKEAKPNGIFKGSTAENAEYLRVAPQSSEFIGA
Description: On the next day, the test compounds and DMSO control were added into H1975 cell plate followed by incubation at 37C/5% CO2 for 4-5 hours. […] Then 5 μL of a donor bead mix was added to each well followed by overnight incubation at room temperature in dark. On the next day, the plate was read at a compatible plate reader to obtain pEGFR signal. Percent of pEGFR inhibition was plotted against log concentration of compounds to generate IC50 values.

| Structure (SMILES) | IC50 (EGFR (L858R T790M C797S)) [nM] | IC50 [1] [nM] |
| --- | --- | --- |
| CC(C)c1cnc(-c2cnn(C)c2CN(C)C)c2cnc(Nc3ccnc(N4CC[C@@H](O)[C@@](C)(F)C4)n3)cc12 [Example 13, (3S,4R)-1-(4-((8-(5-((dimethylamino)methyl)-1-methyl-1H-pyrazol-4-yl)-5-isopropyl-2,7-naphthyridin-3-yl)amino)pyrimidin-2-yl)-3-fluoro-3-methylpiperidin-4-ol trifluoroacetate] | 30 to 100 | > 50 |
| Cc1c(-c2ncc(C(C)C)c3cc(Nc4ccnc(N5CC[C@@H](O)[C@@](C)(F)C5)n4)ncc23)nnn1C [Example 17, (3S,4R)-1-(4-((8-(1,5-dimethyl-1H-1,2,3-triazol-4-yl)-5-isopropyl-2,7-naphthyridin-3-yl)amino)pyrimidin-2-yl)-3-fluoro-3-methylpiperidin-4-ol] | < 15 | 10 to 20 |
| Cc1nnc(-c2cnc(C(C)C)c3cc(Nc4ccnc(N5CC[C@@H](O)[C@@](C)(F)C5)n4)ncc23)o1 [Example 7, (3S,4R)-3-fluoro-1-(4-((5-isopropyl-8-(5-methyl-1,3,4-oxadiazol-2-yl)-2,6-naphthyridin-3-yl)amino)pyrimidin-2-yl)-3-methylpiperidin-4-ol] | 15 to 20 | > 50 |
| CNC[C@@H]1CCCN1c1ncc(C(C)C)c2cc(Nc3ccnc(N4CC[C@@H](O)[C@@](C)(F)C4)n3)ncc12 [Example 197, (3S,4R)-3-fluoro-1-(4-((5-isopropyl-8-((S)-2-((methylamino)methyl)pyrrolidin-1-yl)-2,7-naphthyridin-3-yl)amino)pyrimidin-2-yl)-3-methylpiperidin-4-ol] | < 15 | 30 to 50 |
| Cc1nc(-c2ccc(C(C)C)c3cc(Nc4ccnc(N5CC[C@@H](O)[C@@](C)(F)C5)n4)ncc23)n[nH]1 [Example 26, (3S,4R)-3-fluoro-1-(4-((5-isopropyl-8-(5-methyl-1H-1,2,4-triazol-3-yl)isoquinolin-3-yl)amino)pyrimidin-2-yl)-3-methylpiperidin-4-ol] | < 15 | 30 to 50 |
| CC(C)c1cnc(N2CCCC2)c2cnc(Nc3ccnc(N4CC[C@@H](O)[C@@](C)(F)C4)n3)cc12 [Example 45, (3S,4R)-3-fluoro-1-(4-((5-isopropyl-8-(pyrrolidin-1-yl)-2,7-naphthyridin-3-yl)amino)pyrimidin-2-yl)-3-methylpiperidin-4-ol] | 20 to 30 | > 50 |
| C[C@@H]1[C@H](F)CN1c1ncc([C@@H](C)CO)c2cc(Nc3ccnc(N4CC[C@@H](O)[C@@](C)(F)C4)n3)ncc12 (single isomer, unassigned) [Example 210, (3S,4R)-3-fluoro-1-(4-((8-((2R,3R)-3-fluoro-2-methylazetidin-1-yl)-5-((R)-1-hydroxypropan-2-yl)-2,7-naphthyridin-3-yl)amino)pyrimidin-2-yl)-3-methylpiperidin-4-ol or (3S,4R)-3-fluoro-1-(4-((8-((2R,3R)-3-fluoro-2-methylazetidin-1-yl)-5-((S)-1-hydroxypropan-2-yl)-2,7-naphthyridin-3-yl)amino)pyrimidin-2-yl)-3-methylpiperidin-4-ol] | < 15 | 10 to 20 |
| CO[C@@H]1CCN(c2nccc(Nc3cc4c(C(C)C)cnc(N5C[C@H](O)[C@H]5C)c4cn3)n2)C[C@@H]1F [Example 150, (2R,3S)-1-(6-((2-((3S,4R)-3-fluoro-4-methoxypiperidin-1-yl)pyrimidin-4-yl)amino)-4-isopropyl-2,7-naphthyridin-1-yl)-2-methylazetidin-3-ol] | < 15 | < 10 |
| C[C@H](CO)c1cnc(N2CC[C@H]2C)c2cnc(Nc3ccnc(N4C[C@@H](F)[C@@H](O)C(C)(C)C4)n3)cc12 (single isomer, unassigned) [Example 188] | < 15 | 20 to 30 |
| CC(C)c1cnc(N2CC(S(C)(=O)=O)C2)c2cnc(Nc3ccnc(N4CC[C@@H](O)[C@@](C)(F)C4)n3)cc12 [Example 69, (3S,4R)-3-fluoro-1-(4-((5-isopropyl-8-(3-(methylsulfonyl)azetidin-1-yl)-2,7-naphthyridin-3-yl)amino)pyrimidin-2-yl)-3-methylpiperidin-4-ol] | < 15 | 30 to 50 |
| CC(C)c1cnc(N2CC[C@]23CCN(C)C3)c2cnc(Nc3ccnc(N4CC[C@@H](O)[C@@](C)(F)C4)n3)cc12 (single isomer, unassigned) [Example 198, (3S,4R)-3-fluoro-1-(4-((5-isopropyl-8-((S)-6-methyl-1,6-diazaspiro[3.4]octan-1-yl)-2,7-naphthyridin-3-yl)amino)pyrimidin-2-yl)-3-methylpiperidin-4-ol or (3S,4R)-3-fluoro-1-(4-((5-isopropyl-8-((R)-6-methyl-1,6-diazaspiro[3.4]octan-1-yl)-2,7-naphthyridin-3-yl)amino)pyrimidin-2-yl)-3-methylpiperidin-4-ol] | 15 to 20 | 30 to 50 |

The next lines start with the values.

| IC50 (EGFR (L858R T790M C797S)) [nM] | IC50 [1] [nM] | Structure (SMILES) |
| --- | --- | --- |
| < 15 | > 50 | C[C@H](C#N)c1ncc(N2CC[C@H]2C)c2cnc(Nc3ccnc(N4CC[C@@H](O)[C@@](C)(F)C4)n3)cc12 (single isomer, unassigned) [Example 157, (S)-2-(7-((2-((3S,4R)-3-fluoro-4-hydroxy-3-methylpiperidin-1-yl)pyrimidin-4-yl)amino)-4-((R)-2-methylazetidin-1-yl)-2,6-naphthyridin-1-yl)propanenitrile or (R)-2-(7-((2-((3S,4R)-3-fluoro-4-hydroxy-3-methylpiperidin-1-yl)pyrimidin-4-yl)amino)-4-((R)-2-methylazetidin-1-yl)-2,6-naphthyridin-1-yl)propanenitrile] |
| < 15 | 10 to 20 | CC(C)c1cnc(N2C[C@H](O)[C@H]2C)c2cnc(Nc3ccnc(N4C[C@@H](F)[C@@H](O)[C@@](C)(F)C4)n3)cc12 (single isomer, unassigned) [Example 133, (3S,4R,5R)-3,5-difluoro-1-(4-((8-((2R,3S)-3-hydroxy-2-methylazetidin-1-yl)-5-isopropyl-2,7-naphthyridin-3-yl)amino)pyrimidin-2-yl)-3-methylpiperidin-4-ol or (3R,4S,5S)-3,5-difluoro-1-(4-((8-((2R,3S)-3-hydroxy-2-methylazetidin-1-yl)-5-isopropyl-2,7-naphthyridin-3-yl)amino)pyrimidin-2-yl)-3-methylpiperidin-4-ol] |
| 15 to 20 | > 50 | CC(C)c1cnc(-c2cnn(C(F)F)c2)c2cnc(Nc3ccnc(N4CC[C@@H](O)[C@@](C)(F)C4)n3)cc12 [Example 16, (3S,4R)-1-(4-((8-(1-(difluoromethyl)-1H-pyrazol-4-yl)-5-isopropyl-2,7-naphthyridin-3-yl)amino)pyrimidin-2-yl)-3-fluoro-3-methylpiperidin-4-ol] |
| < 15 | 20 to 30 | CC(C)c1cnc(N2CCC(F)(F)C2)c2cnc(Nc3ccnc(N4CC[C@@H](O)[C@@](C)(F)C4)n3)cc12 [Example 57, (3S,4R)-1-(4-((8-(3,3-difluoropyrrolidin-1-yl)-5-isopropyl-2,7-naphthyridin-3-yl)amino)pyrimidin-2-yl)-3-fluoro-3-methylpiperidin-4-ol] |
| < 15 | 10 to 20 | CC(C)c1cnc(N2CC(C(F)F)C2)c2cnc(Nc3ccnc(N4CC[C@@H](O)[C@@](C)(F)C4)n3)cc12 [Example 55, (3S,4R)-1-(4-((8-(3-(difluoromethyl)azetidin-1-yl)-5-isopropyl-2,7-naphthyridin-3-yl)amino)pyrimidin-2-yl)-3-fluoro-3-methylpiperidin-4-ol] |
| < 15 | 20 to 30 | CC(C)c1ccc(N2CC(Cn3ccnn3)C2)c2cnc(Nc3ccnc(N4CC[C@](C)(O)[C@H](F)C4)n3)cc12 [Example 40, (3R,4S)-1-(4-((8-(3-((1H-1,2,3-triazol-1-yl)methyl)azetidin-1-yl)-5-isopropylisoquinolin-3-yl)amino)pyrimidin-2-yl)-3-fluoro-4-methylpiperidin-4-ol] |
| 15 to 20 | < 10 | CO[C@H]1CCN(c2nccc(Nc3cc4c(C(C)C)ccc(N5C[C@H](c6nnco6)[C@H]5C)c4cn3)n2)C[C@@H]1O (single isomer, unassigned) [Example 217] |
| < 15 | 10 to 20 | CC(C)c1cnc(N2CCC23CCN(C)CC3)c2cnc(Nc3ccnc(N4CC[C@@H](O)[C@@](C)(F)C4)n3)cc12 [Example 196, (3S,4R)-3-fluoro-1-(4-((5-isopropyl-8-(7-methyl-1,7-diazaspiro[3.5]nonan-1-yl)-2,7-naphthyridin-3-yl)amino)pyrimidin-2-yl)-3-methylpiperidin-4-ol] |
| 15 to 20 | > 50 | CC(=O)NCC1CCN1c1ncc(C(C)C)c2cc(Nc3ccnc(N4CC[C@@H](O)[C@@](C)(F)C4)n3)ncc12 (stereo partly drawn) [Example 70, N-((1-(6-((2-((3S,4R)-3-fluoro-4-hydroxy-3-methylpiperidin-1-yl)pyrimidin-4-yl)amino)-4-isopropyl-2,7-naphthyridin-1-yl)azetidin-2-yl)methyl)acetamide] |
| 20 to 30 | > 50 | CC(C)c1cnc(N2CCC23CN(C)C3)c2cnc(Nc3ccnc(N4CCC5(CCO5)CC4)n3)cc12 [Example 116, N-(2-(1-oxa-7-azaspiro[3.5]nonan-7-yl)pyrimidin-4-yl)-5-isopropyl-8-(6-methyl-1,6-diazaspiro[3.3]heptan-1-yl)-2,7-naphthyridin-3-amine] |
